{"source": "patent US20040254344A1", "about": "“Amino acid conjugates providing for sustained systemic concentrations of gaba analogues” (priority 2001, published 2004)", "key": {"[1]": {"assay": "Caco-2 homogenate S9 stability", "type": "in vitro ADME", "details": "incubation with Caco-2 homogenate for 1 hour, 5 μM, 37° C.", "experimental": "Tissue homogenates and plasma samples were obtained from commercial sources (Pel-Freez Biologicals, Rogers, Ark., and GenTest Corporation, Woburn, Mass.). Stability of prodrugs toward the specific enzyme aminopeptidase was also evaluated by incubation with the purified enzyme. Experimental conditions used for the in vitro studies were as follows. Each preparation was incubated with test compound at 37° C. for one hour. Aliquots (50 μL) were removed at 0, 30, and 60 min and quenched with 0.1% trifluoroacetic acid in acetonitrile. Samples were then centrifuged and analyzed for the presence of prodrug and released gabapentin by LC/MS/MS as described below.\nConcentrations of prodrug or gabapentin in tissue extracts were determined by direct injection onto an API 2000 LC/MS/MS equipped with an Agilent 1100 binary pump and autosampler. Separation was achieved using a 3.5 μm Zorbax Ellipse XDB-C8 4.4×150 mm column heated to 45° C. during the analysis. The mobile phases were: 0.1% formic acid in water (A) and 0.1% formic acid in acetonitrile (B). The gradient condition was: 2% B for 0.5 min, increasing to 90% B in 2.0 min, maintained for 2.5 min and returning to 2% B for 2 min. A TurboIonSpray source was used on the API 2000. The analysis was performed in the positive ion mode and MRM transitions of 172.0/137.2 were used in the analysis of gabapentin (2). Ten microliters of the sample extracts were injected. Peaks were integrated using Analyst quantitation software. The method was linear for (2) over the concentration range 0.002 to 2.5 μg/mL respectively.\nCaco-2 Homogenate S9 Stability: Caco-2 cells were grown for 21 days prior to harvesting. Culture medium was removed and cell monolayers were rinsed and scraped off into ice-cold 10 mM sodium phosphate/0.15 M potassium chloride, pH 7.4. Cells were lysed by sonication at 4° C. using a probe sonicator. Lysed cells were then transferred into 1.5 mL centrifuge vials and centrifuged at 9000 g for 20 min at 4° C. The resulting supernatant (Caco-2 cell homogenate S9 fraction) was aliquoted into 0.5 mL vials and stored at −80° C. until used.\nFor stability studies, prodrug (5 μM) was incubated in Caco-2 homogenate S9 fraction (0.5 mg protein per mL) for 60 min at 37° C. Concentrations of intact prodrug and released drug were determined at zero time and 60 minutes using LC/MS/MS."}, "[2]": {"details": "rat; for Cmax PD (Cmax of prodrug in plasma): oral prodrug 25 mg-equivalents of gabapentin per kg; for Cmax of gabapentin in plasma: single oral dose 25 mg/kg gabapentin or 25 mg-equivalents of gabapentin per kg", "experimental": "The pharmacokinetics of the prodrugs prepared in Examples 1 and 3 were examined in rats. […] Animals were fasted overnight prior to dosing and until 4 hours post-dosing. Serial blood samples were obtained over 24 hours following dosing and blood was processed for plasma by centrifugation. Plasma samples were stored at −80° C. until analyzed.\nPlasma (50 μL) was precipitated by addition of […] of methanol and supernatant was injected directly onto the LC/MS/MS system. […] Following oral administration of gabapentin prodrugs, concentrations of prodrug and gabapentin in plasma were monitored over 24 hours."}, "[3]": {"details": "monkey; for AUC G (AUC of gabapentin) / Cmax G (Cmax of gabapentin) / increase in gabapentin exposure (as measured by AUC) on a 7.5-fold increase in dose: oral; for increase in gabapentin exposure (as measured by AUC) on a 7.5-fold increase in dose: 10 to 75 mg-eq/kg", "description": "The prodrug was administered orally to four adult male monkeys (approximate body weight of 6.5 kg) via an oral nasogastric tubeas solutions in water or PEG 400. The dose was 10 or 75 mg-equivalents of gabapentin per kg body weight. Animals were fasted overnight before the study and for 4 hours post-dosing. Blood samples (1.0 mL) were obtained via femoral or cephalic venipuncture at intervals over 48 hours after oral dosing. Blood was processed immediately for plasma and plasma was frozen at −80° C. until analyzed. […] Oral bioavailability was determined by comparison of area under the gabapentin concentration versus time curve (AUC) following oral administration of prodrug or intravenous administration of an equimolar dose of gabapentin hydrochloride."}, "[4]": {"details": "rat, oral and i.v. dosing of prodrug"}, "[5]": {"details": "monkey, sodium salt, 10 mg-equivalents of gabapentin per kg"}, "PEPT1": {"tested_on": "PEPT1", "details": "tested at 1 mM on oocytes expressing PEPT1; normalised to 1 mM glycyl-sarcosine", "experimental": "(§1) Rat and human PEPT1 and PEPT2 expressing CHO cell lines were prepared as described in PCT Application WO01/20331. Gabapentin-containing dipeptides were evaluated for interaction with the peptide transporters using a radiolabeled substrate uptake assay in a competitive inhibition format, as described in PCT Application WO01/20331. Transport-induced currents were also measured in Xenopus oocytes transfected with rat and human PEPT1 and PEPT2.\n(§2) RNA preparation: Rat and human PEPT1 and PEPT2 transporter cDNAs were subdcloned into a modified pGEM plasmid that contains 5′ and 3′ untranslated sequences from the Xenopus β-actin gene. These sequences increase RNA stability and protein expression. Plasmid cDNA was linearized and used as template for in vitro transcription (Epicentre Technologies transcription kit, 4:1 methylated:non-methylated GTP).\n(§3) Xenopus oocyte isolation. Xenopus laevis frogs were anesthetized by immersion in Tricaine ([…] in deionized water) for 15 min. […]\n(§4) Electrophysiology measurements. Transport currents were measured 2-14 days after injection, using a standard two-electrode electrophysiology set-up (Geneclamp 500 amplifier, Digidata 1320/PCLAMP software and ADInstruments hardware and software were used for signal acquisition)."}, "PEPT2": {"tested_on": "PEPT2", "details": "tested at 1 mM on oocytes expressing PEPT2; normalised to 1 mM glycyl-sarcosine", "experimental": "as §1, §2, §3, §4"}}, "note": "Where two headings read alike, the source gives them in different places.", "data": [{"compound": "N[C@@H](Cc1ccc(C(F)(F)F)cc1)C(=O)NCC1(CC(=O)O)CCCCC1", "note": "[1aa, L-4-Trifluoromethylphenylalanine-Gabapentin]", "values": [{"measurement": "% of prodrug surviving intact", "setting": "[1]", "value": 97, "unit": "%"}, {"measurement": "Cmax PD (Cmax of prodrug in plasma)", "setting": "[2]", "value": 30000, "unit": "ng/mL"}]}, {"compound": "NCC1(CC(=O)O)CCCCC1", "note": "[compound 2, gabapentin]", "values": [{"measurement": "Cmax of gabapentin in plasma", "setting": "[2]", "value": 10300, "unit": "ng/mL"}, {"measurement": "F (oral bioavailability as gabapentin)", "setting": "[3]; 10 mg-eq/kg", "value": "53.9±17.3", "unit": "%"}, {"measurement": "F (oral bioavailability as gabapentin)", "setting": "[3]; 75 mg-eq/kg", "value": "22.9±1.1", "unit": "%"}, {"measurement": "AUC G (AUC of gabapentin)", "setting": "[3]; 10 mg-eq/kg", "value": "32100 ± 10400", "unit": "ng·h/mL"}, {"measurement": "Cmax G (Cmax of gabapentin)", "setting": "[3]; 10 mg-eq/kg", "value": "3700 ± 1600", "unit": "ng/mL"}, {"measurement": "AUC G (AUC of gabapentin)", "setting": "[3]; 75 mg-eq/kg", "value": "102000 ± 4900", "unit": "ng·h/mL"}, {"measurement": "Cmax G (Cmax of gabapentin)", "setting": "[3]; 75 mg-eq/kg", "value": "10800 ± 1300", "unit": "ng/mL"}, {"measurement": "increase in gabapentin exposure (as measured by AUC) on a 7.5-fold increase in dose", "setting": "[3]", "value": 3.2, "unit": "fold"}]}, {"compound": "NC(Cc1ccc(F)cc1F)C(=O)NCC1(CC(=O)O)CCCCC1", "note": "[1ap, D, L-2,4-Difluorophenylalanine-Gabapentin]", "values": [{"measurement": "% of prodrug surviving intact", "setting": "[1]", "value": 90, "unit": "%"}, {"measurement": "Cmax PD (Cmax of prodrug in plasma)", "setting": "[2]", "value": 278000, "unit": "ng/mL"}]}, {"compound": "N[C@@H](Cc1ccccc1F)C(=O)NCC1(CC(=O)O)CCCCC1", "note": "[1ab, L-2-Fluorophenylalanine-Gabapentin]", "values": [{"measurement": "fraction absorbed intact following oral administration", "setting": "[4]", "value": "about 60%"}]}, {"compound": "N[C@@H](Cc1cccc2ccccc12)C(=O)NCC1(CC(=O)O)CCCCC1", "note": "[1l, L-1-Naphthylalanine-Gabapentin]", "values": [{"measurement": "% of prodrug surviving intact", "setting": "[1]", "value": 29, "unit": "%"}, {"measurement": "Cmax PD (Cmax of prodrug in plasma)", "setting": "[2]", "value": 500, "unit": "ng/mL"}]}, {"compound": "N#Cc1ccc(C[C@H](N)C(=O)NCC2(CC(=O)O)CCCCC2)cc1", "note": "[1am, L-4-Cyanophenylalanine-Gabapentin]", "values": [{"measurement": "% of prodrug surviving intact", "setting": "[1]", "value": 90, "unit": "%"}, {"measurement": "Cmax PD (Cmax of prodrug in plasma)", "setting": "[2]", "value": 22400, "unit": "ng/mL"}]}, {"compound": "N#Cc1cccc(C[C@H](N)C(=O)NCC2(CC(=O)O)CCCCC2)c1", "note": "[1al, L-3-Cyanophenylalanine-Gabapentin]", "values": [{"measurement": "% of prodrug surviving intact", "setting": "[1]", "value": 46, "unit": "%"}, {"measurement": "Cmax PD (Cmax of prodrug in plasma)", "setting": "[2]", "value": 600, "unit": "ng/mL"}]}, {"compound": "N[C@@H](Cc1cc(F)cc(F)c1)C(=O)NCC1(CC(=O)O)CCCCC1", "note": "[1ao, L-3,5-Difluorophenylalanine-Gabapentin]", "values": [{"measurement": "% of prodrug surviving intact", "setting": "[1]", "value": 48, "unit": "%"}, {"measurement": "Cmax PD (Cmax of prodrug in plasma)", "setting": "[2]", "value": 2900, "unit": "ng/mL"}]}, {"compound": "N[C@@H](CO)C(=O)NCC1(CC(=O)O)CCCCC1", "note": "[1ax, L-Serine-Gabapentin]", "values": [{"measurement": "increase in gabapentin exposure (as measured by AUC) on a 7.5-fold increase in dose", "setting": "[3]", "value": 5.1, "unit": "fold"}, {"measurement": "fraction absorbed intact following oral administration", "setting": "[4]", "value": "15-20%"}]}, {"compound": "N[C@@H](Cc1ccc(Br)cc1)C(=O)NCC1(CC(=O)O)CCCCC1", "note": "[1ah, L-4-Bromophenylalanine-Gabapentin]", "values": [{"measurement": "% of prodrug surviving intact", "setting": "[1]", "value": 79, "unit": "%"}, {"measurement": "Cmax PD (Cmax of prodrug in plasma)", "setting": "[2]", "value": 103000, "unit": "ng/mL"}, {"measurement": "Cmax of gabapentin in plasma", "setting": "[2]", "value": 6100, "unit": "ng/mL"}, {"measurement": "AUC G (AUC of gabapentin)", "setting": "[5]; oral", "value": "29100 ± 3500", "unit": "ng·h/mL"}, {"measurement": "AUC PD (AUC of prodrug)", "setting": "[5]; oral", "value": "18900 ± 6500", "unit": "ng·h/mL"}, {"measurement": "Cmax G (Cmax of gabapentin)", "setting": "[5]; oral", "value": "3800 ± 1100", "unit": "ng/mL"}, {"measurement": "Cmax PD (Cmax of prodrug)", "setting": "[5]; oral", "value": "14900 ± 5300", "unit": "ng/mL"}, {"measurement": "F (oral bioavailability as gabapentin)", "setting": "[5]", "value": "49.1±6.8", "unit": "%"}]}, {"compound": "CC(C)C[C@H](CNC(=O)[C@@H](N)Cc1ccc(Br)cc1)CC(=O)O", "note": "[compound 5, L-4-Bromophenylalanine-Pregabalin]", "values": [{"measurement": "PEPT-specific currents above background", "setting": "PEPT1", "value": "at least 5 % of Imax for Gly-Sar"}, {"measurement": "PEPT-specific currents above background", "setting": "PEPT2", "value": "at least 5 % of Imax for Gly-Sar"}]}, {"compound": "L-Tyrosine-(O-2-Bromobenzyloxycarbonyl)-Gabapentin [4d]", "values": [{"measurement": "% of prodrug surviving intact", "setting": "[1]", "value": 3, "unit": "%"}]}]}
